# Results as given in patent US20240389594A1 (priority 2020, published 2024).
# Like-named read-outs stand apart in the source and are kept apart here.
# How the values were obtained:
# Type in all cases: cell-based
# [1] = test system: Botrytis cinerea
# [2] = test system: Colletotrichum orbiculare; experiment: Microtiterplate test, anthracnose caused by Colletotrichum orbiculare (COLLLA), Example 1; conditions: single compound, 7 days
# [3] = test system: Pyricularia oryzae; conditions: PYRIOR, single compound, 7 days
# [4] = test system: Septoria tritici; experiment: Microtest, leaf blotch on wheat caused by Septoria tritici (SEPTTR), Example 2; conditions: single compound, 7 days
# [5] = test system: Alternaria solani; experiment: Microtest, early blight caused by Alternaria solani (ALTESO), Example 1; conditions: single compound, 7 days
# [6] = test system: Septoria tritici; conditions: 7 days
smiles,measurement,setting,value
"Cc1cccc(-n2nnn(C)c2=O)c1COc1ccn(-c2ccc(Cl)cc2)n1 [Methyltetraprol, metyltetraprole]",Observed efficacy,[1]; 7 days,52%
same,Observed efficacy,[2]; 0.063 ppm,0%
same,Observed efficacy,[3]; 0.004 ppm,3%
same,Observed efficacy,[3]; 0.016 ppm,11%
same,Observed efficacy,[4]; 0.004 ppm,0%
same,Observed efficacy,[5]; 0.004 ppm,12%
same,Observed efficacy,[5]; 0.016 ppm,31%
"CON(Cc1ccc(-c2noc(C(F)(F)F)n2)cc1)C(=O)C1CC1 [Compound II-2, N-methoxy-N-[[4-[5-(trifluoromethyl)-1,2,4-oxadiazol-3-yl]phenyl]methyl]cyclopropanecarboxamide]",Observed efficacy,[4]; 0.25 ppm,9%
"CCC(=O)Oc1c(OC)ccnc1C(=O)N[C@@H](C)C(=O)O[C@@H](C)[C@@H](C)c1ccccc1C [Compound II-1, [(1 S,2S)-1-methyl-2-(o-tolyl)propyl] (2S)-2-[(4-methoxy-3-propanoyloxy-pyridine-2-carbonyl)amino]propanoate]",Observed efficacy,[1],13%
same,Observed efficacy,[2]; 0.25 ppm,0%
same,Observed efficacy,[2]; 1 ppm,0%
same,Observed efficacy,[3]; 1 ppm,10%
same,Observed efficacy,[6],15%
same,Observed efficacy,[5]; 1 ppm,42%
